# Laboratory results: PMC6383519 (Cancer immunology, immunotherapy : CII, 2013)
# “Also recorded” adds a separate entry of the source. Read-outs that look alike come from different tables or passages of the source.
# Tests used:
# [1] = system: HLA-A2 molecule on T2 cells; assay: T2-cell binding; design: species or system human; settings: for Actual binding: T2-A2 cells, peptide 12.5 μg/ml, overnight incubation, flow cytometry, mean fluorescence intensity; for T2-A2 binding (rank): ranking among 5 potential MUC1-C agonist epitopes
# PBMCs of cancer patients = assay: Establishment of peptide-specific T-cell lines; type: cell-based, human; settings: PBMCs of vaccinated cancer patients, autologous DCs pulsed with 20 μg/ml peptide
# [2] = system: MUC1 peptide-specific CD8+ T cells; assay: Tetramer staining; type: cell-based, human; settings: Supplemental Fig. 3; for binding of T-cell line to corresponding tetramer: HLA-A3 tetramers; for binding of T-cell line to the control tetramer: negative control tetramer
# [3] = system: C1RA3 cells pulsed with the corresponding peptide; assay: Lysis of cells pulsed with the corresponding peptide; type: cell-based, human; settings: T-cell lines from PBMCs of HLA-A3 patients vaccinated with PANVAC
# [4] = system: MUC1-specific T-cell lines; type: cell-based, human
# [5] = system: MUC1-specific T-cell lines; assay: IFN-γ production by peptide-specific T-cell lines; type: cell-based, human; settings: ranking among 5 potential MUC1-C agonist epitopes
# [6] = system: tumor cells endogenously expressing the native antigen; assay: Ranking of killing by peptide-specific CTL; type: cell-based, human; settings: ranking among 5 potential MUC1-C agonist epitopes
# [7] = HLA-A24, T-cell line T-C7A stimulated 24h with B-cells pulsed with the peptide
# [8] = HLA-A24, T-cell line T-C7 stimulated 24h with B-cells pulsed with the peptide
sequence,measurement,setting,value
ALAIVYLIAL [Peptide C1],Actual binding,[1],249 MFI
ALAIVYLIAL [Peptide C4],generation of T-cell lines with the peptide,PBMCs of cancer patients,grew poorly
ALFIVYLIAK [Peptide C4A],binding of T-cell line to corresponding tetramer,[2],20.2%
same,binding of T-cell line to the control tetramer,[2],< 0.04%
same,lysis of C1RA3 cells pulsed with the corresponding peptide,[3],seen
same,generation of T-cell lines with the peptide,PBMCs of cancer patients,could be derived
APDTRPAPG [Peptide V2],Actual binding,[1],210 MFI
same,generation of T-cell lines with the peptide,PBMCs of cancer patients,could not be generated
KYHPMSEYAL [Peptide C6A],IFN-γ,[4]; stimulation of the T-cell line generated with the C6A agonist peptide,"2,651 pg/ml/10^5 cells"
same,generation of T-cell lines with the peptide,PBMCs of cancer patients,could be generated
KYTNPAVAL [Peptide C7A],GM-CSF,[4]; [7],910 pg/ml/2.5 × 10^5 T cells
same,IFN-γ,[4]; [7],"2,000 pg/ml/2.5 × 10^5 T cells"
same,IL-2,[4]; [7],<2.4 pg/ml/2.5 × 10^5 T cells
same,IL-6,[4]; [7],40 pg/ml/2.5 × 10^5 T cells
same,IL-8,[4]; [7],360 pg/ml/2.5 × 10^5 T cells
same,IL-10,[4]; [7],375 pg/ml/2.5 × 10^5 T cells
same,TNFα,[4]; [7],70 pg/ml/2.5 × 10^5 T cells
same,GM-CSF,[4]; [8],300 pg/ml/2.5 × 10^5 T cells
same,IFN-γ,[4]; [8],"1,279 pg/ml/2.5 × 10^5 T cells"
same,IL-2,[4]; [8],<2.4 pg/ml/2.5 × 10^5 T cells
same,IL-6,[4]; [8],7.7 pg/ml/2.5 × 10^5 T cells
same,IL-8,[4]; [8],7.3 pg/ml/2.5 × 10^5 T cells
same,IL-10,[4]; [8],45 pg/ml/2.5 × 10^5 T cells
same,TNFα,[4]; [8],30 pg/ml/2.5 × 10^5 T cells
same,generation of T-cell lines with the peptide,PBMCs of cancer patients,could be generated
SLFRSPYEK [Peptide C5A],binding of T-cell line to corresponding tetramer,[2],16.2%
same,binding of T-cell line to the control tetramer,[2],< 0.04%
same,lysis of C1RA3 cells pulsed with the corresponding peptide,[3],seen
same,generation of T-cell lines with the peptide,PBMCs of cancer patients,could be derived
SLSYTNPAV [Peptide C3],Actual binding,[1],326 MFI
STAPPAHGV [Peptide V1],Actual binding,[1],166 MFI
same,generation of T-cell lines with the peptide,PBMCs of cancer patients,could not be generated
STDRSPYEK [Peptide C5],generation of T-cell lines with the peptide,PBMCs of cancer patients,grew poorly
SYTNPAVAA [Peptide C7],GM-CSF,[4]; [7],215 pg/ml/2.5 × 10^5 T cells
same,IFN-γ,[4]; [7],680 pg/ml/2.5 × 10^5 T cells
same,IL-2,[4]; [7],<2.4 pg/ml/2.5 × 10^5 T cells
same,IL-6,[4]; [7],<2.4 pg/ml/2.5 × 10^5 T cells
same,IL-8,[4]; [7],112 pg/ml/2.5 × 10^5 T cells
same,IL-10,[4]; [7],92 pg/ml/2.5 × 10^5 T cells
same,TNFα,[4]; [7],30 pg/ml/2.5 × 10^5 T cells
same,GM-CSF,[4]; [8],237 pg/ml/2.5 × 10^5 T cells
same,IFN-γ,[4]; [8],750 pg/ml/2.5 × 10^5 T cells
same,IL-2,[4]; [8],<2.4 pg/ml/2.5 × 10^5 T cells
same,IL-6,[4]; [8],6.4 pg/ml/2.5 × 10^5 T cells
same,IL-8,[4]; [8],6.8 pg/ml/2.5 × 10^5 T cells
same,IL-10,[4]; [8],25 pg/ml/2.5 × 10^5 T cells
same,TNFα,[4]; [8],21 pg/ml/2.5 × 10^5 T cells
same,generation of T-cell lines with the peptide,PBMCs of cancer patients,grew poorly; also recorded: could be generated
YLAIVYLIAL [Peptide C1A],Level of IFN-γ produced by peptide-specific CTL (rank),[5],3
same,Level of killing by peptide-specific CTL (rank),[6],2
same,Actual binding,[1],245 MFI
same,T2-A2 binding (rank),[1],5
YLAPPAHGV [Peptide V1A],Actual binding,[1],486 MFI
same,generation of T-cell lines with the peptide,PBMCs of cancer patients,successfully generated
YLDTRPAPV [Peptide V2A],Actual binding,[1],647 MFI
same,generation of T-cell lines with the peptide,PBMCs of cancer patients,successfully generated
YLIALAVCQC [Peptide C2],Actual binding,[1],211 MFI
YLIALAVCQV [Peptide C2A],Level of IFN-γ produced by peptide-specific CTL (rank),[5],1
same,Level of killing by peptide-specific CTL (rank),[6],1
same,Actual binding,[1],299 MFI
same,T2-A2 binding (rank),[1],3
YLLVLVCVLV [Peptide C9A],Level of IFN-γ produced by peptide-specific CTL (rank),[5],Negative
same,Level of killing by peptide-specific CTL (rank),[6],Negative
same,T2-A2 binding (rank),[1],4
YLSDVSVSDV [Peptide C8A],Level of IFN-γ produced by peptide-specific CTL (rank),[5],4
same,Level of killing by peptide-specific CTL (rank),[6],Negative
same,T2-A2 binding (rank),[1],2
YLSYTNPAV [Peptide C3A],Level of IFN-γ produced by peptide-specific CTL (rank),[5],2
same,Level of killing by peptide-specific CTL (rank),[6],3
same,Actual binding,[1],342 MFI
same,T2-A2 binding (rank),[1],1
